{"source": "patent US12600740B2", "about": "“Fluorinated N-acetyl glucosamine analogs and xylose derivatives” (UTI Limited Partnership, priority 2018, dated 2026)", "key": {"[1]": {"test_system": "mice demyelinated with lysolecithin", "test": "Lysolecithin demyelination of the mouse spinal cord", "format": "in vivo", "conditions": "100 mg/kg IP twice a day, Day 3 to Day 6; Day 7 post-demyelination; listed as difluorosamine", "procedure": "On Day 0, 7 mice were injected with 0.5 μL of 1.0% lysolecithin in the ventral funiculus of the spinal cord. Thereafter, 4 mice were treated from Day 3 to Day 6 with saline vehicle IP twice a day. 3 mice were treated from Day 3 to Day 6 with difluorosamine 100 mg/kg IP twice a day. On Day 7, mice were transcardially perfused with cold PBS and 4% PFA. Thoracic spinal cords were dissected, fixed and analyzed. Sections adjacent to lesion epicenters were triple-stained for Olig2 (cells of the oligodendrocyte lineage), PDGFRα (oligodendrocyte precursor cell) and MBP (myelin). The number of Olig2+, Olig2+ PDGFRα+ (oligodendrocyte precursor cell), and Olig2+ PDGFRα− (presumed mature oligodendrocytes) cells per field of view were quantified blindly. Statistics were conducted using 1-tailed t-tests."}, "[2]": {"test_system": "splenocytes", "test": "Propidium iodide DNA cell cycle flow cytometry of splenocytes", "format": "cell-based, mouse", "conditions": "activated splenocytes", "from_the_text": "Cell-cycle flow cytometry with propidium iodide was used to corroborate the above results, and ensure the reduction in proliferation was not due to cell death. […] To further investigate whether the reduction of proliferation was due to cell death, Annexin V and propidium iodide staining were used to differentiate necrotic cells (propidium iodide+), apoptotic cells (annexin V+), dead cells (propidium iodide+ and annexin V+), and live cells (propidium iodide-annexin V−).\nCell cycle staining with propidium iodide (PI) and analysis by flow cytometry gives percentage of cells in apoptosis, G1, G2, and synthesis, and apoptosis. Following a membrane permeabilization, PI chelates to DNA and level of staining specifies the stage of the cell cycle (e.g., G2 phase will have twice the DNA and thus twice the PI signal as G1 phase, apoptotic cells contain less DNA than healthy cells and are identified by low PI staining). 1×10^6 splenocytes were used per sample, with four replicates per condition. Cells were collected into a tube with PBS and centrifuged (200 r.p.m. for 5 minutes). […] Suspension was transferred to a FACs tube and analyzed. Annexin V/Propidium iodide staining was detected using the Annexin V FITC apoptosis detection kit (BD Biosciences, #556547), which was performed according to manufacturer's instructions."}, "[3]": {"test_system": "splenocytes", "test": "Splenocyte thymidine proliferation assay (anti-CD3/anti-CD28)", "format": "cell-based, mouse", "conditions": "25 μM, 48 hours", "procedure": "It was assessed whether the glucosamine analogs have immunomodulatory properties on splenocytes isolated in culture. T cells within the splenocyte pool were polyclonally activated with anti-CD3 and anti-CD28 antibodies in the presence of compounds for 48 hours, and proliferation was determined by the uptake of tritiated thymidine and expressed as counts per minute. The relative change in proliferation of treated versus control splenocytes was taken in order to rank the compounds across multiple independent experiments (FIG. 8a).\nThe spleens were isolated from 8-10-week-old female C57BL/6 mice and homogenized. The cells were isolated by Ficoll gradient and spun for 30 min at 1,800 r.p.m. The cell suspension was removed and the cells were washed once with PBS. The cell pellet was subsequently re-suspended in Roswell Park Memorial Institute media containing 10% fetal bovine serum, 1% penicillin/streptomycin, 1% sodium pyruvate and 1% L-glutamine. Trypan blue exclusion was used to count live cells, and the cells were plated at 2.5×10^5 cells per well in a round-bottom 96-well plate and activated with 1,000 ng/ml plate-bound anti-CD3 and 1,000 ng/ml anti-CD28 suspended in media to preferentially activate T lymphocytes. Compounds were added at final concentrations of 25 μM. The cells were kept at 37° C. and 5% CO2 for 30 h, after which 10 μl/well (1 μCi per well) of 3H-thymidine was added for 18 h. The cells containing thymidine were harvested onto filter mats using a cell harvester and mats were allowed to dry for 24 h. The results were read by liquid scintillation counts."}, "[4]": {"test_system": "TNFα", "test": "TNFα ELISA of LPS-stimulated bone marrow-derived macrophages", "format": "cell-based, mouse", "conditions": "BMDMs, 50 μM, LPS 100 ng/ml, 24 hours", "procedure": "Multiple Sclerosis: Mechanisms and Immunotherapy. Neuron 97, 742-768 (2018)]. It was tested whether the sugar analogs could affect the activity of macrophages, using bone marrow-derived macrophages (BMDMs) stimulated with lipopolysaccharide (LPS, 100 ng/ml). The sugar analogs were added at 50 μM prior to LPS, and the conditioned medium was collected after 24 hours and assayed for levels of the secreted cytokine TNFα. […] Testing Toxicity of Sugar Analogs\nFemurs were carefully removed from euthanized female C57BI/6 mice, and marrow was flushed into a culture plate with cold complete bone marrow growth medium (DMEM, 10% fetal bovine serum, and the supplements 1% penicillin/streptomycin, 1% glutamine, 1% non-essential amino acids, and 10% supernatant from L929 cell-line enriched in macrophage-colony stimulating factor). Cells were spun at 1100 rpm for 10 minutes, resuspended in fresh growth medium and plated at 10×10^6 cells/ml in a 10 cm culture dish. Cells were grown in DMEM with supplements and L929 supernatant for 5 days, then half the medium was replaced with fresh growth medium. On day 7 growth medium was replaced with DMEM with 10% FBS and supplements. Cells were used on day 8, and experiments were conducted in DMEM with 1% FBS and supplements unless otherwise specified.\nBMDM were plated at 25,000 cells in 96-well plates in DMEM+L929 media. After 24 hours media was changed to DMEM+1% FBS. One hour later, cells were treated with […] compounds or PBS. After 1 hour LPS (final concentration 100 ng/ml) was added. Following 24 hours, conditioned media was harvested for TNFα ELISA (Thermo Scientific), which was performed according to manufacturer's instructions."}, "[5]": {"test_system": "CSPG production by astrocytes", "test": "Western blot of astrocyte conditioned medium, MAB2030 (chondroitin sulfate GAG stubs)", "format": "cell-based, mouse", "conditions": "astrocyte conditioned media, 50 μM, 48 hours", "from_the_text": "Astrocytes are major producers of CSPGs following injury in the CNS [Jones, L. L., Margolis, R. U. & Tuszynski, M. H. The chondroitin sulfate proteoglycans neurocan, brevican, phosphacan, and versican are differentially regulated following spinal cord injury. Experimental Neurology 182, 399-411 (2003); Tang, X., Davies, J. E. & Davies, S. J. Changes in distribution, cell associations, and protein expression levels of NG2, neurocan, phosphacan, brevican, versican V2, and tenascin-C during acute to chronic maturation of spinal cord scar tissue. […] The Journal of neuroscience: the official journal of the Society for Neuroscience 20, 2427-2438 (2000); McKeon, R. J., Jurynec, M. J. & Buck, C. R. The chondroitin sulfate proteoglycans neurocan and phosphacan are expressed by reactive astrocytes in the chronic CNS glial scar. The Journal of neuroscience: the official journal of the Society for Neuroscience 19, 10778-10788 (1999); Haas, C. A., Rauch, U., Thon, N., Merten, T. & Deller, T. Entorhinal cortex lesion in adult rats induces the expression of the neuronal chondroitin sulfate proteoglycan neurocan in reactive astrocytes. The Journal of neuroscience: the official journal of the Society for Neuroscience 19, 9953-9963 (1999)] and they may help drive progression of disability in a model of progressive MS [Mayo, L. et al. Regulation of astrocyte activation by glycolipids drives chronic CNS inflammation. Nature medicine 20, 1147-1156 (2014)]. Therefore astrocytes were used as model cells to determine the ability of the sugar analogs to reduce synthesis of CSPGs. Since CSPGs are exported out of cells, the conditioned media from analog-treated astrocytes were probed by Western blots (FIG. 4). We used antibodies to both the stubs of chondroitin sulfate GAGs attached to the core protein (MAB2030) and to intact 4-sulfated chondroitin sulfate sidechains (2H6) (FIG. 4a). Particularly, we used the 2H6 antibody to label intact 4-sulfated chondroitin sulfate sidechains, and the MAB2030 antibody to detect the stubs of chondroitin sulfate GAGs attached to the core protein. […] 1998, 160 (8), 3812-3819. Poole Poole C. A.; Glant T. T.; Schofield J. R.; Chondrons from articular cartilage. (IV). Immunolocalization of proteoglycan epitopes in isolated canine tibial chondrons. J. Histochem. Cytochem. 1991, 39 (9), 1175-1187].\nAstrocytes were plated in uncoated 6-well plates (3 replicate wells per treatment) at 1×10^6 cells/well in mixed glial media, and incubated at 5% CO2 and 37° C. Astrocytes were treated with compounds at 50 μM in AIM-V media for 48 hours. Media was pooled from 3 replicate wells in 15 ml 100K cutoff centricon tubes (EMD Millipore, #UFC905008), which were spun on an ultracentrifuge at 5000× g for 2 cycles of 10 minutes each. When harvested, the cell lysate was kept on ice for 5 minutes with 250 μL of RIPA buffer (ThermoFisher Scientific #89900) containing proteinase inhibitor, and then collected and centrifuged at 14000 g for 5 minutes. Total protein was quantified using a Bradford assay. Conditioned media that were to be probed for chondroitin 4-sulfate GAGs (Millipore, #MAB2030) were first digested with 0.2 U/ml chondroitinase ABC for overnight at 37° C. to remove chondroitin sulfate sidechains. Blots that were to be probed with CSA (2H6, Cosmo) or CS56 (Abcam #ab11570) were not exposed to chondroitinase ABC. Samples were heat denatured with NuPAGE® LDS Sample buffer at 70° C. for 10 minutes and then loaded into 3-8% tris-acetate pre-cast gels (ThermoFisher, #EA0478BOX). The gels were electrophoresed at a constant 150 V for 90 minutes and transferred to a […] polyvinylidene fluoride membrane at a constant 250 mA for 60 minutes. The membranes were blocked for one hour with 10% skim milk in Tris-buffered saline (TBS; 0.9% NaCl, 10 mM Tris-HCl, pH 7.5) containing 0.5% Tween 20 (TBS-T). Primary antibodies were added in 3% skim milk and incubated overnight at 4° C. […]"}}, "note": "“Also recorded” adds a separate entry of the source."}
{"smiles": "CC(=O)NC1C(OC(C)=O)OC(COC(C)=O)C(F)(F)C1OC(C)=O", "note": "[Compound 16, 2-Acetamido-1,3,6-tri-O-acetyl-2,4-dideoxy-4,4-difluoro-α/β-D-xylo-hexopyranose]", "values": [{"measurement": "percentage of Olig2+ oligodendrocyte lineage cells that are Olig2+ PDGFRα+ OPCs", "setting": "[1]", "result": "significant increase; also recorded: increased the proportion of oligodendrocyte precursor cells (OPCs)"}]}
{"smiles": "CC(=O)NC1C(O)OC(COC(C)=O)[C@@H](F)C1OC(C)=O", "note": "(stereo in doubt) [Compound 10]", "values": [{"measurement": "percentage of cells in cell cycle phases", "setting": "[2]", "result": "reduced the percentage of cells in the S (DNA synthesis)-phase of the cell cycle"}]}
{"smiles": "CCC(=O)OCC1OC(O)C(NC(C)=O)C(OC(=O)CC)[C@@H]1F", "note": "(mixture of isomers) [Compound 11, 2-Acetamido-2,4-dideoxy-4-fluoro-3,6-di-O-propanoyl-α/β-D-glucopyranose]", "values": [{"measurement": "splenocyte proliferation", "setting": "[3]", "result": "reduced splenocyte proliferation"}, {"measurement": "TNFα production by LPS-stimulated macrophages", "setting": "[4]", "result": "enhanced TNFα levels"}, {"measurement": "effect on CSPG production by astrocytes", "setting": "[5]", "result": "did not lower CSPG production in astrocytes"}]}
